Results published in publication PMC11904993, “Humanized Candida and NanoBiT Assays Expedite Discovery of Bdf1 Bromodomain Inhibitors With Antifungal Potential” (Advanced Science, 2025).
Several values for one entry are separate records, joined by “and”; a condition that tells them apart may be missing. Identical values can stand only once. Like-named read-outs stand apart in the source and are kept apart here.

Columns and labels:
[1] = target: CgBdf1 BD1 (Candida glabrata, UniProt Q6FWV7); test: HTRF assay, inhibition of H4ac4 peptide binding; set-up: species or system C. glabrata; details: for HTRF signal, normalized (Figure 5A data): 240 min
Chain of CgBdf1 BD1 (Q6FWV7 entry or part of it): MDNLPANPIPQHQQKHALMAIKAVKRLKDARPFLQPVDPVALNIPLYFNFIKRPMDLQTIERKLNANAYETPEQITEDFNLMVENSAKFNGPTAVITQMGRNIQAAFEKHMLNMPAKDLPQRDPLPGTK

[2] = tested on: C. albicans expressing humanized Bdf1; test: Galleria fungal infection model, humanized strain; type: in vivo, Galleria mellonella; set-up: key to survival event of one larva (1 = death 0 = no death): 1 = death; 0 = no death; details: for survival event of one larva (1 = death 0 = no death): Bdf1-hBD* strain
Description: Galleria mellonella larvae were purchased from Decathlon (La Tronche, France). They were selected in the late larval stages weighing between 300 and 400 mg. Groups of 10 larvae were injected into the right or left last pro‐leg with 10 µl of either PBS, C. albicans suspensions or antifungal drug using an insulin syringe (BDUltra‐Fine 0.3 ml). C. albicans suspensions of the WT and humanized Bdf1 strains were adjusted to 10^6 cells larva^−1. Antifungal drugs (anidulafungin 5 mg kg^−1 or I‐BET726 66 or 44 mg kg^−1) were injected once 30 min before fungal infection. An infected control group received the C. albicans inoculum and the solvent of the drug. A non‐infected control group received only PBS. After inoculation, larvae were placed in Petri dishes and incubated in the dark at 37 °C. The larvae were monitored for 5 days, and survival outcome was determined. For experiments performed at the lower (44 mg kg^−1) dose of IBET‐726, the difference in protection against infection with humanized versus WT C. albicans strains was more evident using the survival data at 40 h rather than at 100 h post‐infection. Larvae were considered dead when no response was observed following touch. All experiments were performed at least 3 times independently. The significance of survival was assessed by a Log‐rank (Mantel‐Cox) test in GraphPad Prism 10.

[3] = tested on: Bmh1/Bmh2; test: NanoBiT assay, control pair; type: cell-based, S. cerevisiae; set-up: Normalized nanoBiT signal: unit of the concentration uncertain
Description: (§1) Yeast strains were distributed in 96‐well microplates containing SC(MSG)‐U medium (SC‐U medium with 0.1% monosodium glutamate instead of ammonium sulfate as a nitrogen source) and grown at 30 °C. 40 µL of exponentially growing cells were transferred in white 96‐well half‐area microplates (ProxiPlate Plus, Greiner Bio‐One) previously filled with 40 µL per well of SC(MSG) containing 100 µM furimazine. The microplates were then incubated for 10 min in the dark before the luminescence signals were recorded using a microplate reader (Ensight, PerkinElmer). Luminescence measurements were performed for 1 s per well at a distance of 0.1 mm between the plate and the detector. The luminescence values were normalized with the optical density (OD600) of the corresponding cultures. For NanoBiT assays with BET inhibitors, yeast cultures were grown overnight at 30 °C in SC(MSG) medium in the presence of serial dilutions of 24c and I‐BET726. Overnight cultures were diluted 5 fold in SC(MSG) and incubated for 1 h before luminescence was recorded as previously indicated. Luminescence values for each condition were normalized using the average of the luminescence recorded for the Bdf1/Swc4 and Bmh1/Bmh2 controls.

[4] = tested on: C. glabrata strains expressing WT and mutant Bdf1; test: Growth inhibition in liquid media, C. glabrata lab strains; details: for %Growth: WT BDF1-flag
Description: Growth on Liquid Media with C. glabrata Lab Strains: Cells were grown at 30 °C in SC+M+C‐U medium (SC medium with 5 mM methionine, 0.25 mM cysteine, without uracil) to an OD600 of 0.5–0.8. […] Plates were incubated at 30 °C and OD600 was measured using a Multiskan FC Microplate Photometer (Thermo Fisher).

[5] = target: T1, Bdf1‐SmBiT/H2A.Z‐LgBiT pair (Saccharomyces cerevisiae, UniProt P35817); test: NanoBiT assay; type: cell-based, S. cerevisiae; set-up: remaining activity: dose or concentration left out as unconfirmed
T1 construct: expressed in transfected cells; host or cells: S. cerevisiae (H2A.Z-LgBiT strain)
T1 sequence (P35817 whole entry): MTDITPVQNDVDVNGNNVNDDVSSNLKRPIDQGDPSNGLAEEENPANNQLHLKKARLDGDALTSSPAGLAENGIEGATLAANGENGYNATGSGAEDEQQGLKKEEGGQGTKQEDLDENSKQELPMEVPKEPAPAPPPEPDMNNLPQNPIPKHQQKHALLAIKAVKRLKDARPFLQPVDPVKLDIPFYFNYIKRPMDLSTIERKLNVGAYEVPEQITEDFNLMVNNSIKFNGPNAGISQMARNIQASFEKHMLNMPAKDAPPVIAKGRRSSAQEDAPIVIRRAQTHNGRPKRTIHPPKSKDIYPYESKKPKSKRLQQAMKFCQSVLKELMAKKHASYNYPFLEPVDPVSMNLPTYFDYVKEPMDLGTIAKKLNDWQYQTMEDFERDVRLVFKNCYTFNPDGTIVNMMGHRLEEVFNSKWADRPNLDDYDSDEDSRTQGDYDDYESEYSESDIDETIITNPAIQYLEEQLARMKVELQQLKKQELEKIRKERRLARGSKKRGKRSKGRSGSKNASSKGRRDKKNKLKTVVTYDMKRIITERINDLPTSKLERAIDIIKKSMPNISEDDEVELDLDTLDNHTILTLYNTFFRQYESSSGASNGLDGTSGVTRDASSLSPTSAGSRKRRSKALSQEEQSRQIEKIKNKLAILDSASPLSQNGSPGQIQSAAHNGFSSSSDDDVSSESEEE
Description: as §1

CC(=O)N1c2ccc(-c3ccc(C(=O)O)cc3)cc2C(Nc2ccc(Cl)cc2)CC1C (centres unmarked) [I-BET726]
HTRF signal, normalized (Figure 5A data) ([1]; 0.00524 µM): 100.65 and 90.91 and 103.41
activity at 0.01311 µM ([1]; 4 h, CgBD1, 13.11 nM, read-out: HTRF signal, normalized (Figure 5A data)): 104%
activity at 0.03277 µM ([1]; 4 h, CgBD1, 32.77 nM, read-out: HTRF signal, normalized (Figure 5A data)): 101%
activity at 0.08192 µM ([1]; 4 h, CgBD1, 81.92 nM, read-out: HTRF signal, normalized (Figure 5A data)): 100%
activity at 0.2048 µM ([1]; 4 h, CgBD1, 204.8 nM, read-out: HTRF signal, normalized (Figure 5A data)): 95.5%
activity at 0.512 µM ([1]; 4 h, CgBD1, 512 nM, read-out: HTRF signal, normalized (Figure 5A data)): 85.3%
activity at 3.2 µM ([1]; 4 h, CgBD1, 3200 nM, read-out: HTRF signal, normalized (Figure 5A data)): 40.5%
activity at 8 µM ([1]; 4 h, CgBD1, 8000 nM, read-out: HTRF signal, normalized (Figure 5A data)): 10.1%
activity at 0.00524 µM ([1]; 4 h, read-out: HTRF signal, normalized (Figure 5A data)): 103%
HTRF signal, normalized (Figure 5A data) ([1]; CgBD1, 2.10 nM, 0.0021 µM): 106.06 and 99.07 and 83.43 and 98.63
HTRF signal, normalized (Figure 5A data) ([1]; CgBD1, 13.11 nM, 0.01311 µM): 90.77 and 95.51 and 103.15
HTRF signal, normalized (Figure 5A data) ([1]; CgBD1, 32.77 nM, 0.03277 µM): 93.49 and 101.00 and 99.77
HTRF signal, normalized (Figure 5A data) ([1]; CgBD1, 204.8 nM, 0.2048 µM): 107.13 and 88.05 and 91.40
HTRF signal, normalized (Figure 5A data) ([1]; CgBD1, 512 nM, 0.512 µM): 93.88 and 86.26 and 86.89
HTRF signal, normalized (Figure 5A data) ([1]; CgBD1, 1280 nM, 1.28 µM): 77.62 and 66.65 and 70.52
HTRF signal, normalized (Figure 5A data) ([1]; CgBD1, 3200 nM, 3.2 µM): 48.37 and 45.98 and 46.29
HTRF signal, normalized (Figure 5A data) ([1]; CgBD1, 8000 nM, 8 µM): 13.26 and 14.56 and 18.60
IC50 ([1]; Fig 5A, four replicates, read-out: IC50 (μM) BD1, C. gla. Bdf1): 2.52 ± 0.14 µM
protection against infection ([2]; 44 mg kg^−1, humanized strain, p = 0.0115, Mantel‐Cox test): significant protection
survival of infected larvae ([2]; 66 mg kg^−1, injected once 30 min before infection, humanized strain): ≈ 100 h
survival event of one larva (1 = death 0 = no death) ([2]; Figure 6C, Time 8 hours): 1
survival event of one larva (1 = death 0 = no death) ([2]; Figure 6C, Time 33 hours): 1
survival event of one larva (1 = death 0 = no death) ([2]; Figure 6C, Time 57 hours): 1
survival event of one larva (1 = death 0 = no death) ([2]; Figure 6C, Time 70 hours): 1
survival event of one larva (1 = death 0 = no death) ([2]; Figure 6D, Time 27 hours): 1
survival event of one larva (1 = death 0 = no death) ([2]; Figure 6D, Time 41 hours): 1 and 0
Normalized nanoBiT signal [3]: 108% and 107% and 96% and 97%
Normalized nanoBiT signal ([3]; Bmh1-LgBiT, Bmh2-SmBiT, 0.02441 (unit uncertain), Fig 4C): 104% and 103% and 105% and 97%
Normalized nanoBiT signal ([3]; Bmh1-LgBiT, Bmh2-SmBiT, 0.09766 (unit uncertain), Fig 4C): 105% and 106% and 103% and 100%
Normalized nanoBiT signal ([3]; Bmh1-LgBiT, Bmh2-SmBiT, 0.19531 (unit uncertain), Fig 4C): 105% and 94% and 98%
Normalized nanoBiT signal ([3]; Bmh1-LgBiT, Bmh2-SmBiT, 0.39063 (unit uncertain), Fig 4C): 110% and 103% and 98% and 96%
Normalized nanoBiT signal ([3]; Bmh1-LgBiT, Bmh2-SmBiT, 0.78125 (unit uncertain), Fig 4C): 109% and 110% and 93% and 102%
Normalized nanoBiT signal ([3]; Bmh1-LgBiT, Bmh2-SmBiT, 1.56250 (unit uncertain), Fig 4C): 115% and 111% and 95% and 99%
Normalized nanoBiT signal ([3]; Bmh1-LgBiT, Bmh2-SmBiT, 3.12500 (unit uncertain), Fig 4C): 112% and 118% and 104% and 101%
inhibition of NanoBiT signal, Bmh1/Bmh2 ([3]; unrelated control pair): not observed
%Growth ([4]; Fig 3E, 50 µM, Exp 1-3): 24% and 29% and 27%
%Growth ([4]; Fig 3F, 0.0412 µM): 86.79% and 92.92% and 93.05%
%Growth ([4]; Fig 3F, 0.1235 µM): 78.65% and 90.9% and 90.48%
%Growth ([4]; Fig 3F, 0.3704 µM): 70.78% and 76.63% and 84.08%
%Growth ([4]; Fig 3F, 1.1111 µM): 65.69% and 73.22% and 70.81%
%Growth ([4]; Fig 3F, 3.3333 µM): 37.23% and 49.84% and 57.55%
%Growth ([4]; Fig 3F, 10 µM): 20.2% and 22.05% and 23.51%
EC50 ([4]; Nakaseomyces glabratus, read-out: EC50 (μM) growth inhibition, Fig 3F, strain BDF1-FLAG (WT Bdf1)): 3.24 ± 0.75 µM
EC50 ([4]; Nakaseomyces glabratus, read-out: EC50 (μM) growth inhibition, strain bdf1-Y166F (active BD: BD2)): 1.98 ± 0.36 µM
EC50 ([4]; Nakaseomyces glabratus, read-out: EC50 (μM) growth inhibition, strain bdf1-Y343F (active BD: BD1)): ~25 µM
EC50 ([4]; Nakaseomyces glabratus, read-out: EC50 (μM) growth inhibition, strain bdf1-bd1Δ (active BD: BD2)): 1.17 ± 0.1 µM
EC50 ([4]; Nakaseomyces glabratus, read-out: EC50 (μM) growth inhibition, strain bdf1-bd2Δ (active BD: BD1)): 13.7 ± 4.9 µM
Growth (%) ([4]; WT BDF1, 20 µM, Fig 5B): 34%
EC50 ([4]; read-out: EC50 (μM) growth inhibition, Fig 3F, strain BDF1-FLAG (WT Bdf1)): 3 µM and 3.2 µM
remaining activity at 24.41 µM ([5]; Bdf1-SmBiT, Htz1-LgBiT, 0.02441 mM, Fig 4C, read-out: Normalized nanoBiT signal): 92%
remaining activity at 97.66 µM ([5]; Bdf1-SmBiT, Htz1-LgBiT, 0.09766 mM, Fig 4C, read-out: Normalized nanoBiT signal): 93%
remaining activity at 195.31 µM ([5]; Bdf1-SmBiT, Htz1-LgBiT, 0.19531 mM, Fig 4C, read-out: Normalized nanoBiT signal): 96%
remaining activity at 390.63 µM ([5]; Bdf1-SmBiT, Htz1-LgBiT, 0.39063 mM, Fig 4C, read-out: Normalized nanoBiT signal): 92%
remaining activity at 781.25 µM ([5]; Bdf1-SmBiT, Htz1-LgBiT, 0.78125 mM, Fig 4C, read-out: Normalized nanoBiT signal): 83%
remaining activity at 1562.5 µM ([5]; Bdf1-SmBiT, Htz1-LgBiT, 1.56250 mM, Fig 4C, read-out: Normalized nanoBiT signal): 65%
remaining activity at 3125 µM ([5]; Bdf1-SmBiT, Htz1-LgBiT, 3.12500 mM, Fig 4C, read-out: Normalized nanoBiT signal): 46%
remaining activity ([5]; Bdf1-SmBiT, Htz1-LgBiT, […], Fig 4C, read-out: Normalized nanoBiT signal): 39%
IC50 ([5]; mean and s.d., 4 independent experiments, read-out: IC50 (μM) (ScBdf1 / H2A.Z) NanoBiT signal): 2.1 µM
remaining activity at 48.83 µM ([5]; read-out: Normalized nanoBiT signal): 96%
